Data on six molecules can be found in patent US11422106B2, “Using 4-acetoxyphenol as a substrate for modular hydrolase biosensors” (United States Government, as represented by the …, priority 2019, dated 2022).

Where “and” joins values, the source holds several entries; their conditions need not be identical. Identical values can stand only once.

For assay [1], the target named is T1, Acetylcholinesterase (AchE) (Electrophorus electricus, UniProt O42275).
T1 construct: purchased Sigma-Aldrich Type VI-S (catalogue number not given)
T1 sequence (O42275 24-633): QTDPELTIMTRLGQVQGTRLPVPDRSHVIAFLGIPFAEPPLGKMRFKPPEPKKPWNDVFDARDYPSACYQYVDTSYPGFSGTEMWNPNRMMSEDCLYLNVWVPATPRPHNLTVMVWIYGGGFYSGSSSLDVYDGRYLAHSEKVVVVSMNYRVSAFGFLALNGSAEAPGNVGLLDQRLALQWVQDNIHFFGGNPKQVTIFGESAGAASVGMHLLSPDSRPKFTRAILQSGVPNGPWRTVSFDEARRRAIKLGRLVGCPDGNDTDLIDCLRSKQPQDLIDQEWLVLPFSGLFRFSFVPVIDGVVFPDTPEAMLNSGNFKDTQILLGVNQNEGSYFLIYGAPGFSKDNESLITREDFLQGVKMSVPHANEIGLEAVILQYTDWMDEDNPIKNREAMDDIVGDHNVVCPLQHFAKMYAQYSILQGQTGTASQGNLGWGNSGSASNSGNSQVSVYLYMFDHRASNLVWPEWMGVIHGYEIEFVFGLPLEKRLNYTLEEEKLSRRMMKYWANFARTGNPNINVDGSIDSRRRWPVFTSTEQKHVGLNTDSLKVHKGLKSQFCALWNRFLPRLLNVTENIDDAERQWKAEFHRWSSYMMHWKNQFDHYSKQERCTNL
Nature of the assay: Amperometric activity assay of immobilized AchE electrode with 4-acetoxyphenol (steady state current at 0.35 V). In kind it is biochemical, Electrophorus electricus (electric eel). The conditions noted are these: substrate 4-acetoxyphenol. As for the experimental part:
Acetylcholinesterase (E.C. 3.1.1.7) Type VI-S from Electrophorus electricus (electric eel) with activity of 217 U mg^−1 protein, was purchased from Sigma-Aldrich. 4-Acetoxyphenol was purchased from Combi-Blocks (San Diego, Calif., USA). All other chemicals were purchased from Sigma-Aldrich (reagent grade) and used as received.
A mixture of BSA and AchE (containing 0.50 μg, or 0.11 U of the AchE, 8 μg of BSA in 10 μl of 0.06 M phosphate, pH 7.0) was spread on the working electrode of carbon SPE (RRPE1002C). The proteins were deposited on the electrode surface by air drying, and then crosslinked by adding 10 μl of 0.0021% of glutaraldehyde solution in water. The electrode was air dried at room temperature for 16 h to complete the crosslinking. To hydrate the sensor, it was stored in 0.1 M Tris-HCl, pH 7.0 for >24 h at room temperature before use.
Electrochemical evaluations were carried out in the low volume SPE cell (Pine Research Instrumentation, Durham, N.C., USA), and the conditions controlled by a DY2013 Potentiostat with DY2000 software (Digi-Ivy, Inc. Austin, Tex., USA). The working potential was set with the Ag/AgCl electrode on the SPE as the reference. […]
All evaluations were carried out at 22±2° C. The current in amperometric determination was recorded for 150 s. […] The average of the readings between 120 s and 150 s was used as the steady-state current. […]

In assay [2] the target is T1, Acetylcholinesterase (AchE). In kind it is biochemical, Electrophorus electricus (electric eel).
For assay [3] the target is unchanged. Nature of the assay: Speciation of As(III)/As(V) mixtures with the AchE sensor versus ICP-AES. In kind it is biochemical, Electrophorus electricus (electric eel). The conditions noted are these: 5 μM As(V) mixed with 0-20 μM As(III), 0.1 M Tris-HCl pH 8.0.
Assay [4] in a line: Hydrolase activity of commercial enzymes with 4-acetoxyphenol as substrate. In kind it is biochemical. The text has this:
Instead of, or in addition to, AchE, the preferred biosensors of the present subject matter can utilize a wide range of enzyme(s). Table 1 set forth below lists a representative list of enzymes suitable for use in the biosensors of the present subject matter. The preferred biosensors can utilize one or more of these enzyme(s) instead of, or in addition to, AchE. It is also contemplated that other enzyme(s) could potentially be used in the biosensors of the present subject matter.

With `CC(=O)Oc1ccc(O)cc1` [4-acetoxyphenol], in assay [1], the “Vmax (Michaelis-Menten fit of steady state current)” value was determined as 24.2±1.1 μA and the “current density corresponding to Vmax” value is 121+5.25 μA cm^−2.

As to sodium arsenite [As(III)], in assay [2], the “estimated inhibition (from linear regression)” value is reported as 50.7±5.7%; the inhibition result is recorded as “about 55%”; the maximum inhibition is 69.3% and 65.7%. Besides, in assay [2] (pH 8), the IMax was 70-75%; the Ki worked out at 61.6 µM; the “k1 (reversible pseudo-first order model)” value worked out at 47.3 M⁻¹ s⁻¹; the “second (dissociation) rate constant of the reversible pseudo-first order model, symbol not given” value was determined as 0.175 M⁻¹.

`O.O.O.O.O.O.O.O=[As]([O-])([O-])O.[Na+].[Na+]` [As(V), Na2HAsO4.7H2O]: the “sensitivity of the AchE sensor to the species” value in assay [3] is on record as “not sensitive”.

B1: Alcalase 2.5 Type DX: Subtilisin, Novozyme, Bacillus licheniformis (protein, UniProt P00780 106-379, looked up)
Subtilisin Carlsberg: AQTVPYGIPLIKADKVQAQGFKGANVKVAVLDTGIQASHPDLNVVGGASFVAGEAYNTDGNGHGTHVAGTVAALDNTTGVLGVAPSVSLYAVKVLNSSGSGSYSGIVSGIEWATTNGMDVINMSLGGASGSTAMKQAVDNAYAKGVVVVAAAGNSGSSGNTNTIGYPAKYDSVIAVGAVDSNSNRASFSSVGAELEVMAPGAGVYSTYPTNTYATLNGTSMASPHVAGAAALILSKHPNLSASQVRNRLSSTATYLGSSFYYGKGLINVEAAAQ
modifications: commercial Novozymes enzyme preparation
notes: Subtilisin, Novozyme, Bacillus licheniformis
Turning to B1, in assay [4], the “Activity with 4-Acetoxyphenol” value turned out to be 1.93 µmol/mg/min.

B2: Lipolase 100 L: Lipase, Novozyme, Thermomyces lanuginosus (protein, UniProt O59952 23-291, looked up)
Lipase: EVSQDLFNQFNLFAQYSAAAYCGKNNDAPAGTNITCTGNACPEVEKADATFLYSFEDSGVGDVTGFLALDNTNKLIVLSFRGSRSIENWIGNLNFDLKEINDICSGCRGHDGFTSSWRSVADTLRQKVEDAVREHPDYRVVFTGHSLGGALATVAGADLRGNGYDIDVFSYGAPRVGNRAFAEFLTVQTGGTLYRITHTNDIVPRLPPREFGYSHSSPEYWIKSGTLVPVTRNDIVKIEGIDATGGNNQPNIPDIPAHLWYFGLIGTCL
modifications: commercial Novozymes enzyme preparation
notes: Lipase, Novozyme, Thermomyces lanuginosus
Consider B2, for which, in assay [4], the “Activity with 4-Acetoxyphenol” value stood at 1.59 µmol/mg/min.

B3: Palatase 20000 L: Lipase, Novozyme, Rhizomucor miehei (protein, UniProt P19515 95-363, looked up)
Lipase: SIDGGIRAATSQEINELTYYTTLSANSYCRTVIPGATWDCIHCDATEDLKIIKTWSTLIYDTNAMVARGDSEKTIYIVFRGSSSIRNWIADLTFVPVSYPPVSGTKVHKGFLDSYGEVQNELVATVLDQFKQYPSYKVAVTGHSLGGATALLCALDLYQREEGLSSSNLFLYTQGQPRVGDPAFANYVVSTGIPYRRTVNERDIVPHLPPAAFGFLHAGEEYWITDNSPETVQVCTSDLETSDCSNSIVPFTSVLDHLSYFGINTGLCT
With B3, the “Activity with 4-Acetoxyphenol” value in assay [4] worked out at 3.43 µmol/mg/min.

For orientation: Ki means the dissociation constant of the complex between target and ligand, obtained from inhibition or displacement. Low readings indicate higher affinity, high ones lower affinity.
